Key:
[1] = target: 5-HT2A receptors (Rattus norvegicus, UniProt P14842); assay: in-vitro affinity to 5-HT2A receptors, displacement of [3H]ketanserine (Example A1); format: binding; conditions: read-out: HT2A IC50
Excerpt: The 5-HT2A receptors are exposed both to [^3H]ketanserine (a substance which is known for its affinity to the receptor) and also to the test compound. The decrease in the affinity of [^3H]ketanserine to the receptor is an indication of the affinity of the test substance to the 5-HT2A receptor.

[2] = target: T1, 5 HT2C receptor (Homo sapiens, UniProt P28335); assay: affinity to the 5 HT2C receptor; format: binding
T1 sequence (P28335 33-458): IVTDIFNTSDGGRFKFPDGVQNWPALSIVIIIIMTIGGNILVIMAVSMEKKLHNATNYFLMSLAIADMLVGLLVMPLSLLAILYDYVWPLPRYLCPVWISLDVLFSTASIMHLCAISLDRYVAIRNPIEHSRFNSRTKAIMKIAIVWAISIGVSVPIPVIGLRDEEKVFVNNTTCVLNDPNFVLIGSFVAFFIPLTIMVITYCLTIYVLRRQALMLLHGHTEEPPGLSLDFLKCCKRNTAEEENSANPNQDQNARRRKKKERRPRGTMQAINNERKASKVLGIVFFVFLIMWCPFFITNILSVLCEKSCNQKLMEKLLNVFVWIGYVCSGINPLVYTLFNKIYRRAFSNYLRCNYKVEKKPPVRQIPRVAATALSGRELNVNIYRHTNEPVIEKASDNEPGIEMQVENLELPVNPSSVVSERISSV

Chain of 5-HT2A receptors (P14842 whole entry): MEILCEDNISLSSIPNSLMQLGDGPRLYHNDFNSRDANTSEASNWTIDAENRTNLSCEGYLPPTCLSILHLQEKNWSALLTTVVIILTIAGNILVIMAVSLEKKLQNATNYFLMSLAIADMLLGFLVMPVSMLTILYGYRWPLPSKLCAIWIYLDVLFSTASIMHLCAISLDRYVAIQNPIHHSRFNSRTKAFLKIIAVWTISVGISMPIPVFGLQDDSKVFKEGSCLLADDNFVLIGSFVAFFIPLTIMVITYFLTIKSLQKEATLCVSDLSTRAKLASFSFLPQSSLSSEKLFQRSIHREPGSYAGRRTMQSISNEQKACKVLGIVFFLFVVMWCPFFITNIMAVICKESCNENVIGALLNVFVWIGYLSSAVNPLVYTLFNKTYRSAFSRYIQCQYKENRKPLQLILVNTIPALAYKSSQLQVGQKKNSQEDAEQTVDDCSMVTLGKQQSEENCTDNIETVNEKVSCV

| Compound | IC50 [1] [nM] | IC50 [2] [nM] |
| --- | --- | --- |
| CC(C)(C)OC(=O)N1CCN(Cc2cnn(-c3ccc(C(F)(F)F)cc3)c2-c2ccccc2F)CC1 [Example 896, tert-Butyl 4-[5-(2-fluorophenyl)-1-(4-trifluoro-methylphenyl)-1H-pyrazol-4-ylmethyl]-piperazine-1-carboxylate] | 8 | 43000 |
| CCN(CC)Cc1cnn(-c2ccc(-c3ccccc3)cc2)c1-c1ccccc1F [Example 897, [1-Biphenyl-4-yl-5-(2-fluorophenyl)-1H-pyrazol-4-ylmethyl]diethylamine] | 11 | 1000 |
| Fc1ccccc1-c1c(CCN2CCOCC2)cnn1-c1ccc(-c2ccccc2)cc1 [Example 898, 4-{2-[1-Biphenyl-4-yl-5-(2-fluoro-phenyl)-1H-pyrazol-4-yl]ethyl}morpholine] | 12 | 1000 |
| CN1CCN(Cc2cnn(-c3ccc(-c4ccc(F)cc4)cc3)c2-c2ccccc2)CC1 [Example 900, 1-[1-(4′-Fluorobiphenyl-4-yl)-5-phenyl-1H-pyrazol-4-ylmethyl]-4-methylpiperazine] | 13 | 310 |
| CN1CCN(Cc2cnn(-c3ccc(-c4ccc5c(c4)OCCO5)cc3)c2-c2ccccc2F)CC1 [Example 901, 1-[1-[4-(2,3-Dihydrobenzo[1,4]dioxin-6-yl)-phenyl]-5-(2-fluorophenyl)-1H-pyrazol-4-yl-methyl]-4-methyl-piperazine] | 13 | 870 |
| CN1CCN(Cc2cnn(-c3ccc(-c4ccc(F)cc4)cc3)c2-c2ccccc2F)CC1 [Example 902, 1-[1-(4′-Fluorobiphenyl-4-yl)-5-(2-fluoro-phenyl)-1H-pyrazol-4-ylmethyl]-4-methyl-piperazine] | 13.1 | 215 |
| CN1CCN(NCc2cnn(-c3ccc(-c4ccccc4)cc3)c2-c2ccccc2F)CC1 [Example 903, [1-Biphenyl-4-yl-5-(2-fluorophenyl)-1H-pyrazol-4-ylmethyl]-(4-methylpiperazin-1-yl)amine] | 14 | 470 |
| OC1CCN(Cc2cnn(-c3ccc(-c4ccccc4)cc3)c2-c2ccccc2F)C1 (stereo not drawn) [Example 904, 1-[1-Biphenyl-4-yl-5-(2-fluorophenyl)-1H-pyrazol-4-ylmethyl]pyrrolidin-3-ol] | 14 | 2000 |
| COCCNCc1cnn(-c2ccc(-c3ccccc3)cc2)c1-c1ccccc1F [Example 905, [1-Biphenyl-4-yl-5-(2-fluorophenyl)-1H-pyrazol-4-ylmethyl]-(2-methoxyethyl)amine] | 16 | 1000 |
| CN(CCO)Cc1cnn(-c2ccc(-c3ccccc3)cc2)c1-c1ccccc1F [Example 906, 2-{[1-Biphenyl-4-yl-5-(2-fluorophenyl)-1H-pyrazol-4-ylmethyl]methylamino}ethanol] | 16 | 1000 |
| CN1CCC(N(C)Cc2cnn(-c3ccc(-c4ccccc4)cc3)c2-c2ccccc2F)C1 (stereo not drawn) [Example 907, [1-Biphenyl-4-yl-5-(2-fluorophenyl)-1H-pyrazol-4-ylmethyl]methyl-(1-methylpyrrolidin-3-yl)amine] | 16 | 84 |
| CN1CCN(Cc2cnn(-c3ccc(-n4cccc4)cc3)c2-c2ccccc2F)CC1 [Example 909, 1-[5-(2-Fluorophenyl)-1-(4-pyrrol-1-ylphenyl)-1H-pyrazol-4-ylmethyl]-4-methylpiperazine] | 17 | 210 |
| CN(C)CCN(C)Cc1cnn(-c2ccc(-c3ccccc3)cc2)c1-c1ccccc1F [Example 912, N-[1-Biphenyl-4-yl-5-(2-fluorophenyl)-1H-pyrazol-4-ylmethyl]-N,N′,N′-trimethylethane-1,2-diamine] | 20 | 920 |
| OC1CCN(CCc2cnn(-c3ccc(-c4ccc(F)cc4)cc3)c2-c2ccccc2F)C1 (stereo not drawn) [Example 913, 1-{2-[1-(4′-Fluorobiphenyl-4-yl)-5-(2-fluoro-phenyl)-1H-pyrazol-4-yl]ethyl}pyrrolidin-3-ol] | 20 | 620 |
| CN(C)Cc1cnn(-c2ccc(-c3ccccc3)cc2)c1-c1ccccc1F [Example 914, [1-Biphenyl-4-yl-5-(2-fluorophenyl)-1H-pyrazol-4-ylmethyl]dimethylamine] | 21 | 450 |
| NCc1cnn(-c2ccc(-c3ccccc3)cc2)c1-c1ccccc1 [Example 915, C-(1-Biphenyl-4-yl-5-phenyl-1H-pyrazol-4-yl)-methylamine] | 21 | 920 |
| Cc1ccc(-c2ccc(-n3ncc(CN4CCN(C)CC4)c3-c3ccccc3F)cc2)cc1 [Example 916, 1-[5-(2-Fluorophenyl)-1-(4′-methylbiphenyl-4-yl)-1H-pyrazol-4-ylmethyl]-4-methylpiperazine] | 22 | 960 |

| Compound | IC50 [1] [nM] | IC50 [2] [nM] |
| --- | --- | --- |
| c1ccc(-c2ccc(-n3ncc(CNCc4ccccn4)c3-c3ccccc3)cc2)cc1 [Example 918, (1-Biphenyl-4-yl-5-phenyl-1H-pyrazol-4-yl-methyl)pyridin-2-ylmethylamine] | 23 | 1000 |
| Fc1ccc(CCN2CCN(Cc3cnn(-c4ccccn4)c3-c3ccccc3F)CC2)c(F)c1 [Example 919, 1-[2-(2,4-Difluorophenyl)ethyl]-4-[5-(2-fluoro-phenyl)-1-pyridin-2-yl-1H-pyrazol-4-ylmethyl]-piperazine] | 23 | 1000 |
| CN1CCN(Cc2cnn(-c3ccc(-c4ccc(Cl)cc4)cc3)c2-c2ccccc2F)CC1 [Example 920, 1-[1-(4′-Chlorobiphenyl-4-yl)-5-(2-fluoro-phenyl)-1H-pyrazol-4-ylmethyl]-4-methyl-piperazine] | 23 | 330 |
| CN1CCN(CCc2cnn(-c3ccc(-c4ccc(F)cc4)cc3)c2-c2ccccc2F)CC1 [Example 921, 1-{2-[1-(4′-Fluorobiphenyl-4-yl)-5-(2-fluoro-phenyl)-1H-pyrazol-4-yl]ethyl}-4-methylpiperazine] | 23.3 | 730 |
| CN1CCN(Cc2cnn(-c3ccc(-c4ccccc4)cn3)c2-c2ccccc2F)CC1 [Example 922, 1-[5-(2-Fluorophenyl)-1-(5-phenyl-pyridin-2-yl)-1H-pyrazol-4-ylmethyl]-4-methylpiperazine] | 24 | 660 |
| CN1CCN(Cc2cnn(-c3ccc(-c4ccc(F)cc4)cc3)c2-c2ccc(F)cc2)CC1 [Example 923, 1-[1-(4′-Fluorobiphenyl-4-yl)-5-(4-fluoro-phenyl)-1H-pyrazol-4-ylmethyl]-4-methylpiperazine] | 25 | 750 |
| Fc1ccccc1-c1c(CN2CCNCC2)cnn1-c1ccc(-c2ccccc2)cc1 [Example 924, 1-[1-Biphenyl-4-yl-5-(2-fluorophenyl)-1H-pyrazol-4-ylmethyl]piperazine] | 26 | 660 |
| Cn1cccc1CNCc1cnn(-c2ccc(-c3ccccc3)cc2)c1-c1ccccc1 [Example 925, (1-Biphenyl-4-yl-5-phenyl-1H-pyrazol-4-yl-methyl)-(1-methyl-1H-pyrrol-2-ylmethyl)amine] | 26 | 520 |
| CN1CCN(Cc2cnn(-c3ccc(-c4ccccc4)cc3)c2-c2ccccc2F)CC1 [Example 926, 1-[1-Biphenyl-4-yl-5-(2-fluoro-phenyl)-1H-pyrazol-4-ylmethyl]-4-methylpiperazine] | 27.3 | 600 |
| CCN1CCN(Cc2cnn(-c3ccc(-c4ccccc4)cc3)c2-c2ccccc2F)CC1 [Example 927, 1-[1-Biphenyl-4-yl-5-(2-fluoro-phenyl)-1H-pyrazol-4-ylmethyl]-4-ethylpiperazine] | 28 | 1000 |
| CCN1CCN(CCc2cnn(-c3ccc(-c4ccc(F)cc4)cc3)c2-c2ccccc2F)CC1 [Example 928, 1-Ethyl-4-{2-[1-(4′-fluorobiphenyl-4-yl)-5-(2-fluorophenyl)-1H-pyrazol-4-yl]ethyl}piperazine] | 28 | 1300 |
| CC(=O)NC1CCN(Cc2cnn(-c3ccc(-c4ccccc4)cc3)c2-c2ccccc2F)C1 (stereo not drawn) [Example 929, N-{1-[1-Biphenyl-4-yl-5-(2-fluoro-phenyl)-1H-pyrazol-4-ylmethyl]pyrrolidin-3-yl}acetamide] | 29 | 1000 |
| COc1cccc(-c2ccc(-n3ncc(CN4CCN(C)CC4)c3-c3ccccc3F)cc2)c1 [Example 930, 1-[5-(2-Fluorophenyl)-1-(3′-methoxy-biphenyl-4-yl)-1H-pyrazol-4-ylmethyl]-4-methyl-piperazine] | 29 | 690 |
| Fc1ccccc1-c1c(CN2CCCCC2)cnn1-c1ccc(-c2ccccc2)cc1 [Example 931, 1-[1-Biphenyl-4-yl-5-(2-fluorophenyl)-1H-pyrazol-4-ylmethyl]piperidine] | 30 | 1000 |
| c1ccc(-c2ccc(-n3ncc(CNCc4ccncc4)c3-c3ccccc3)cc2)cc1 [Example 932, (1-Biphenyl-4-yl-5-phenyl-1H-pyrazol-4-yl-methyl)pyridin-4-ylmethylamine] | 31 | 1000 |
| OCc1cnn(-c2ccc(-c3ccc(F)cc3)cc2)c1-c1ccc(Cl)cc1 [Example 933, [5-(4-Chlorophenyl)-1-(4′-fluoro-biphenyl-4-yl)-1H-pyrazol-4-yl]methanol] | 31 | 1000 |
